According to ChEMBL document CHEMBL5528028, “Discovery of benzopyridone cyanoacetates as new type of potential broad-spectrum antibacterial candidates” (Eur J Med Chem, 2024):
In brackets after ≈: the same amount, converted by molar mass. Activity calls are given as the source filed them. The calls are words filed in the database; no cut-off is given here.

Columns and labels:
Staphylococcus aureus [1] = experiment: Antibacterial activity against methicillin-resistant Staphylococcus aureus assessed growth inhibition by micro broth dilution method; assay type: functional
Staphylococcus aureus [2] = experiment: Antibacterial activity against Staphylococcus aureus assessed growth inhibition by micro broth dilution method; assay type: functional
Staphylococcus aureus [3] = experiment: Antibacterial activity against Staphylococcus aureus ATCC 25923 assessed growth inhibition by micro broth dilution method; assay type: functional
Staphylococcus aureus [4] = experiment: Antibacterial activity against Staphylococcus aureus ATCC 29213 assessed growth inhibition by micro broth dilution method; assay type: functional
Enterococcus faecalis = experiment: Antibacterial activity against Enterococcus faecalis assessed growth inhibition by micro broth dilution method; assay type: functional
Klebsiella pneumoniae [5] = experiment: Antibacterial activity against Klebsiella pneumonia assessed growth inhibition by micro broth dilution method; assay type: functional
Escherichia coli [6] = experiment: Antibacterial activity against Escherichia coli assessed growth inhibition by micro broth dilution method; assay type: functional
Escherichia coli [7] = experiment: Antibacterial activity against Escherichia coli ATCC 25922 assessed growth inhibition by micro broth dilution method; assay type: functional
Pseudomonas aeruginosa [8] = experiment: Antibacterial activity against Pseudomonas aeruginosa assessed growth inhibition by micro broth dilution method; assay type: functional
Pseudomonas aeruginosa [9] = experiment: Antibacterial activity against Pseudomonas aeruginosa ATCC 27853 assessed growth inhibition by micro broth dilution method; assay type: functional
Acinetobacter baumannii = experiment: Antibacterial activity against Acinetobacter baumannii assessed growth inhibition by micro broth dilution method; assay type: functional
Staphylococcus aureus [10] = experiment: Bactericidal activity against Staphylococcus aureus ATCC 29213 assessed as time dependent killing at 4 times of MIC measured at 8 hrs; assay type: functional, organism-based
Klebsiella pneumoniae [11] = experiment: Bactericidal activity against Klebsiella pneumonia assessed as time dependent killing at 4 times of MIC measured at 8 hrs; assay type: functional, organism-based
Erythrocyte = experiment: Hemolytic activity in human RBC incubated measured upto 128 ug/ml; assay type: toxicity, cell-based; conditions: dose < 128 µg/ml
Cell membrane [12] = experiment: Induction of outer membrane permeability in Klebsiella pneumonia assessed as increase in fluorescence intensity at 2 times of MIC by N-phenyl naphthylamine (NPN) dye based assay; assay type: cell membranes; conditions: Klebsiella pneumoniae
Cell membrane [13] = experiment: Induction of cytoplasmic membrane depolarization in Staphylococcus aureus ATCC 29213 assessed as increase in fluorescence intensity at 2 times of MIC measured upto 40 mins by DiSC35 dye based fluorescence method; assay type: cell membranes
Cell membrane [14] = experiment: Induction of cytoplasmic membrane depolarization in Klebsiella pneumonia assessed as increase in fluorescence intensity at 2 times of MIC measured upto 40 mins by DiSC35 dye based fluorescence method; assay type: cell membranes; conditions: Klebsiella pneumoniae, DISRUPTING AGENT
Cell membrane [15] = experiment: Induction of disruption of membrane integrity in Staphylococcus aureus ATCC 29213 assessed as leakage of intracellular proteins by Acid Blue 90 based assay; assay type: cell membranes
Cell membrane [16] = experiment: Induction of disruption of membrane integrity in Klebsiella pneumonia assessed as leakage of intracellular proteins by Acid Blue 90 based assay; assay type: cell membranes; conditions: Klebsiella pneumoniae
Staphylococcus aureus [17] = experiment: Induction of ROS generation in Staphylococcus aureus ATCC 29213 assessed as increase in fluorescence intensity by DCFH-DA based microscopic analysis; assay type: functional, organism-based
Klebsiella pneumoniae [18] = experiment: Induction of ROS generation in Klebsiella pneumonia assessed as increase in fluorescence intensity by DCFH-DA based microscopic analysis; assay type: functional, organism-based
Staphylococcus aureus [19] = experiment: Induction of ROS generation in Staphylococcus aureus ATCC 29213 assessed as loss of GSH activity by Ellmans method; assay type: functional, organism-based
Klebsiella pneumoniae [20] = experiment: Induction of ROS generation in Klebsiella pneumonia assessed as loss of GSH activity by Ellmans method; assay type: functional, organism-based
Staphylococcus aureus [21] = experiment: Antibacterial activity against Staphylococcus aureus ATCC 29213 assessed as decrease in relative metabolic activity at 4 times of MIC by Alamar Blue assays; assay type: functional, organism-based
Klebsiella pneumoniae [22] = experiment: Antibacterial activity against Klebsiella pneumonia assessed as decrease in relative metabolic activity at 4 times of MIC by Alamar Blue assays; assay type: functional, organism-based
[23] = Thermodynamic solubility of the compound in water; assay type: physicochemical; conditions: read-out: Therm_solubility
Staphylococcus aureus [24] = experiment: Anti-biofilm activity against Staphylococcus aureus ATCC 29213 assessed as relative biofilm clearance rate at 8 times of MIC by crystal violet staining based assay; assay type: functional
Klebsiella pneumoniae [25] = experiment: Anti-biofilm activity against Klebsiella pneumonia assessed as relative biofilm clearance rate at 8 times of MIC by crystal violet staining based assay; assay type: functional
[26] = Cytotoxicity against human NOK cells assessed as cell viability at 8 ug/ml; assay type: toxicity, cell-based; conditions: nok-si, dose 8 µg/ml
[27] = Cytotoxicity against human FHC cells assessed as cell viability at 8 ug/ml; assay type: toxicity, cell-based; conditions: at 8 µg/mL, read-out: Activity

Compound | MIC (Staphylococcus aureus [1]) [µg/mL] | MIC (Staphylococcus aureus [2]) [µg/mL] | MIC (Staphylococcus aureus [3]) [µg/mL] | MIC (Staphylococcus aureus [4]) [µg/mL] | MIC (Enterococcus faecalis) [µg/mL] | MIC (Klebsiella pneumoniae [5]) [µg/mL] | MIC (Escherichia coli [6]) [µg/mL] | MIC (Escherichia coli [7]) [µg/mL] | MIC (Pseudomonas aeruginosa [8]) [µg/mL] | MIC (Pseudomonas aeruginosa [9]) [µg/mL] | MIC (Acinetobacter baumannii) [µg/mL] | Activity (Erythrocyte) | also measured
CCOC(=O)C(C#N)c1cc2c(cc1F)c(=O)c(C(=O)O)cn2C1CC1 (stereo not drawn) | 2 (≈ 5.58 µM) | 0.5 (≈ 1.4 µM) | 8 (≈ 22.3 µM) | 0.5 (≈ 1.4 µM) | 64 (≈ 179 µM) | 0.25 (≈ 0.698 µM) | 32 (≈ 89.3 µM) | 0.5 (≈ 1.4 µM) | 16 (≈ 44.7 µM) | 4 (≈ 11.2 µM) | 1 (≈ 2.79 µM) | Non-Toxic | Activity (Staphylococcus aureus [10]): Active; Activity (Klebsiella pneumoniae [11]): Active; Activity (Cell membrane [12]): Dose-Dependent Effect; Activity (Cell membrane [13]): Active; Activity (Cell membrane [14]): Active; Activity (Cell membrane [15]): Dose-Dependent Effect; Activity (Cell membrane [16]): Dose-Dependent Effect; Activity (Staphylococcus aureus [17]): Dose-Dependent Effect; Activity (Klebsiella pneumoniae [18]): Dose-Dependent Effect; Activity (Staphylococcus aureus [19]): Dose-Dependent Effect; Activity (Klebsiella pneumoniae [20]): Dose-Dependent Effect; Activity (Staphylococcus aureus [21]): Active; Activity (Klebsiella pneumoniae [22]): Active
CCOC(=O)c1cn(Cc2ccc(Cl)c(Cl)c2)c2cc([C-](C#N)C(=O)OCC)c(F)cc2c1=O.[Na+] (stereo not drawn) | 8 | 64 | 0.25 | 0.25 | 1 | 0.25 | 0.25 | 0.25 | 4 | 0.5 | 1 | – | solubility thermodynamic [23]: 97.3 µg/mL; Activity (Staphylococcus aureus [24]): 70%; Activity (Klebsiella pneumoniae [25]): 70%
CCOC(=O)c1cn(Cc2ccc(Cl)cc2Cl)c2cc([C-](C#N)C(=O)OCC)c(F)cc2c1=O.[Na+] (stereo not drawn) | 16 | 32 | 0.25 | 0.25 | 1 | 0.25 | 0.5 | 0.25 | 4 | 0.5 | 2 | Non-Toxic | Activity [26]: Non-Toxic; viability at 8 ug/ml [27]: 70%
